According to article PMC4195943, “A novel small-molecule MRCK inhibitor blocks cancer cell invasion” (Cell Communication and Signaling : CCS, 2014):

Tests used:
[1] = target: ROCK1 (Homo sapiens, UniProt Q13464); test: MLC phosphorylation in MDA-MB-231 cells expressing doxycycline-induced ROCK1 kinase domain (quantitative western blot); parameters: The kinase domains of MRCKβ (1–473), ROCK1 (1–535) or ROCK2 (1–532) were gene synthesized; expressed in transfected cells; host or cells: MDA-MB-231 D3H2LN-Luc Tet3G cells, pTRE3G-ROCK1 (1–535); settings: doxycycline-induced MDA-MB-231, 60 minutes treatment; read-out: cell based EC50, MLC phosphorylation induced by ROCK1
ROCK1, sequence (Q13464 1-535): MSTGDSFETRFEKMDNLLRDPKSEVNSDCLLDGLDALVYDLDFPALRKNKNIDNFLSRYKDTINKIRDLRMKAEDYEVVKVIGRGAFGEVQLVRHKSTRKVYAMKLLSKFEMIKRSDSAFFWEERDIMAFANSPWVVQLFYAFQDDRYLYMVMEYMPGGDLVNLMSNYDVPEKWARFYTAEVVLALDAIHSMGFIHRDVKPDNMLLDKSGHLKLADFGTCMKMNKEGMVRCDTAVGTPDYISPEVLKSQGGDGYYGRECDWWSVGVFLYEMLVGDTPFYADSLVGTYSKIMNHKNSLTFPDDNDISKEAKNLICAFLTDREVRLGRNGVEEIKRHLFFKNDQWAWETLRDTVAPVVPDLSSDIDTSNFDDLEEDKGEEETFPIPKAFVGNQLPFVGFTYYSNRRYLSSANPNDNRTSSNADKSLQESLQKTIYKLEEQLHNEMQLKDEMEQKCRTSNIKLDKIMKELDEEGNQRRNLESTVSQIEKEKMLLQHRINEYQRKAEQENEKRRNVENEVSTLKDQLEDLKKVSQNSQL
Experimental: (A) MDA-MB-231 breast cancer cells expressing doxycycline inducible ROCK1, ROCK2 or MRCKβ kinase domains were established as indicated. Following treatment with doxycycline for 18 hours to induce expression, cell lysates were western blotted with antibodies as indicated. […] All results are shown as mean ± standard error of n = 4 independent replicates.
MDA-MB-231 D3H2LN-Luc cells (Caliper LifeScience) were grown in MEM/EBSS (Hyclone) supplemented with 10% fetal bovine serum (FBS) (Gibco), 1 mM Sodium Pyruvate (Sigma) 2 mM L-glutamine (Gibco), 1× MEM non-essential amino acids (Gibco) plus penicillin-streptomycin (10 Units/ml and 10 μg/ml respectively) at 37°C in 5% CO2 in a humidified incubator. MDA-MB-231 D3H2LN-Luc TetOn MRCKβ, ROCK1 and ROCK2 selective cell lines were grown in the same media with 10% FBS replaced with 10% Tet System Approved FBS (Clontech).
The kinase domains of MRCKβ (1–473), ROCK1 (1–535) or ROCK2 (1–532) were gene synthesized (Genscript) and subcloned into pTRE3G (Clontech). MDA-MB-231 D3H2LN-Luc Tet3G cells were co-transfected with pTRE3G-MRCKβ (1–473), pTRE3G-ROCK1 (1–535) or pTRE3G-ROCK2 (1–532), together with a linear Pur^r-selection marker using Xfect transfection reagent according to manufacturer’s instructions. […] Each clone was treated with or without doxycycline (1 μg/ml) for 24 hours and kinase domain expression and activity determined by western blotting. […]

[2] = logD; format: physicochemical
[3] = target: T1, PKAα (Homo sapiens, UniProt P17612); test: Kinase selectivity profiling (Eurofins), PKAα; format: biochemical
T1 construct: purchased Eurofins
Source text: The results of this screening were mapped over the annotated human kinome phylogenetic tree using Kinome Render (Figure 2).
Kinases inhibited less than 25% have their names in green text. Kinases inhibited >25% and ≤50% have yellow circles, >50% and ≤75% have orange circles, and >75% have red circles. In each case, the size of the circle is proportional to the percentage inhibition. ROCK1 and MRCKα positions are indicated on the tree for orientation purposes. Illustration reproduced courtesy of Cell Signaling Technology, Inc. (www.cellsignal.com).
MRCKα, MRCKβ, ROCK1 and ROCK2 assays were performed using an IMAP fluorescence polarization assay format (Molecular Devices Inc.). 8–12 nM of each kinase (Life Technologies) was incubated for 60 min at room temperature with 100 nM FAM-S6-ribosomal protein derived peptide (synthesized by Alta Biosciences, University of Birmingham UK) in the presence of 1 μM ATP and 0.5 mM MgCl2 in 20 mM Tris buffer (pH 7.4) containing 0.01% Tween-20 and 1 mM DTT (MRCKα and β); or 1 μM ATP, 10 mM MgCl2 in 20 mM Tris buffer (pH 7.5) containing 0.25 mM EGTA 0.01% Triton X-100 and 1 mM DTT (ROCK1 and ROCK2). […] After 30 min incubation to allow binding reagent to bind phosphorylated peptide, fluorescence polarization was measured on a Tecan Saphire^2 plate reader at excitation (470 nm) and emission (530 nm) wavelengths. […]

[4] = tested on: MLC phosphorylation in SCC12 cells; test: MLC phosphorylation in SCC12 squamous cell carcinoma cells (quantitative western blot); format: cell-based, human
Experimental: All results are shown as mean ± standard error of n = 3 independent replicates. […] Readings were compared to the Alamar Blue metabolism in DMSO treated cells that were used as the viability standard of 100% for each replicate experiment. […] (F) Number of invading cells was determined in 5 random fields for each condition for each separate replicate experiment. All results are shown as mean ± standard error of n ≥ 3 independent replicates.
Cell lysates were prepared as described previously. For pMLC western blots, cells were lysed in a 1% (w/v) SDS, 50 mM Tris pH 7.5 buffer and lysates were passed through QIAshredder columns (Qiagen, 79654). Alternatively, for pMLC western blots lysates were prepared in lysis buffer with 50 mM Tris (pH7.5), 0.5% (w/v) SDS, supplemented with Complete Protease and PhosSTOP inhibitors (Roche). Whole cell lysates were separated by SDS-PAGE, transferred to Protran nitrocellulose membranes (Whatman), probed with primary antibodies and appropriate IR dye-conjugated secondary antibodies. Blots were visualized using a Licor Odyssey according to manufacturer’s instructions. […]

[5] = target: T2, MRCKβ (Homo sapiens, UniProt Q9Y5S2); test: IMAP fluorescence polarization kinase assay, MRCKβ; format: biochemical; settings: in vitro, 1 μM ATP
T2 construct: purchased Life Technologies
T2 sequence (Q9Y5S2 whole entry): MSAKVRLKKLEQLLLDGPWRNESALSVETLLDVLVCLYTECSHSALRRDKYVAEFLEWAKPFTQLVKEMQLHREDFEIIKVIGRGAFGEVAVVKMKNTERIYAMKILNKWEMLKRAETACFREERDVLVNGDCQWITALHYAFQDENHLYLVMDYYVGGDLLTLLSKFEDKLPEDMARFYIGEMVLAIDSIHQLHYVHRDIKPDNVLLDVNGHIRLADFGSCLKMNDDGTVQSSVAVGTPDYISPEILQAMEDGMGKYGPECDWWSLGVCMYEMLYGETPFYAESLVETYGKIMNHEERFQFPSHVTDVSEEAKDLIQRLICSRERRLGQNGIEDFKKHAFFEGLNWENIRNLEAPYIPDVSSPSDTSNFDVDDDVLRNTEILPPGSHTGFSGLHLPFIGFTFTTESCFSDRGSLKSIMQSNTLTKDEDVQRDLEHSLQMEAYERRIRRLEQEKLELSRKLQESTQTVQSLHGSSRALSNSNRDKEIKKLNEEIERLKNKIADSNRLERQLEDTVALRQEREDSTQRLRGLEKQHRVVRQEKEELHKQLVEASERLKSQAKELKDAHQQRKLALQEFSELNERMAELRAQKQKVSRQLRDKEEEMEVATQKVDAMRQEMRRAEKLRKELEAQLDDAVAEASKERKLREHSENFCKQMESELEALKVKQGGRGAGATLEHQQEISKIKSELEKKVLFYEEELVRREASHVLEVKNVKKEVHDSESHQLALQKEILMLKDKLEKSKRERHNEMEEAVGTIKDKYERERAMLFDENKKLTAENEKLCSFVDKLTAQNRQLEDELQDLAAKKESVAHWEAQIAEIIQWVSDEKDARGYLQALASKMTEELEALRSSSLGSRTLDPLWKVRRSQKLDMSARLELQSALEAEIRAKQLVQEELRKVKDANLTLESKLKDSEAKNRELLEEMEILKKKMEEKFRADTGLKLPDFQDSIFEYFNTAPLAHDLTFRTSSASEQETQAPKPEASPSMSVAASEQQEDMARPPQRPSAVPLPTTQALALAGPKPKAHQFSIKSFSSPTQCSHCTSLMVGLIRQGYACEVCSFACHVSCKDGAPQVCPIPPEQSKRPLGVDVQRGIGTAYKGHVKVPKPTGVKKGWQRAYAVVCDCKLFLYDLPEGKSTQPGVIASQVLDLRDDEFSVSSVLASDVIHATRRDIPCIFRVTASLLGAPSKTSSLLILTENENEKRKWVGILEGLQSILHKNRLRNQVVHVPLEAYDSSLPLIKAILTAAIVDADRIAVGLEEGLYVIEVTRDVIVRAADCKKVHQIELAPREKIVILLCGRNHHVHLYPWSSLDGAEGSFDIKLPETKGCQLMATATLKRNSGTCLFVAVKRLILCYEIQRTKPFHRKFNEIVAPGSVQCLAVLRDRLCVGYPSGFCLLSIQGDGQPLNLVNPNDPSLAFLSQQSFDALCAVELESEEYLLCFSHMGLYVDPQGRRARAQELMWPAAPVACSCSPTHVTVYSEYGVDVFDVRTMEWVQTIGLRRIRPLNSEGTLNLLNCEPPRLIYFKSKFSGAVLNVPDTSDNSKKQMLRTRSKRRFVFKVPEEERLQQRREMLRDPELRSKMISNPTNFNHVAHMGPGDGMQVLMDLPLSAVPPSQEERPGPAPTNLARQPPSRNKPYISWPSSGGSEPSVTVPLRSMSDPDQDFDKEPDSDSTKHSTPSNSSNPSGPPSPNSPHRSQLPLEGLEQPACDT
Experimental: MRCKα, MRCKβ, ROCK1 and ROCK2 assays were performed using an IMAP fluorescence polarization assay format (Molecular Devices Inc.). 8–12 nM of each kinase (Life Technologies) was incubated for 60 min at room temperature with 100 nM FAM-S6-ribosomal protein derived peptide (synthesized by Alta Biosciences, University of Birmingham UK) in the presence of 1 μM ATP and 0.5 mM MgCl2 in 20 mM Tris buffer (pH 7.4) containing 0.01% Tween-20 and 1 mM DTT (MRCKα and β); or 1 μM ATP, 10 mM MgCl2 in 20 mM Tris buffer (pH 7.5) containing 0.25 mM EGTA 0.01% Triton X-100 and 1 mM DTT (ROCK1 and ROCK2). Typically, dose response analyses were performed over concentration ranges from 0.005 - 100 μM. Reactions were stopped by adding 2 assay volumes of 0.25% (v/v) IMAP binding reagent in 1× IMAP binding buffer A (Molecular Devices). After 30 min incubation to allow binding reagent to bind phosphorylated peptide, fluorescence polarization was measured on a Tecan Saphire^2 plate reader at excitation (470 nm) and emission (530 nm) wavelengths. Inhibition was calculated using no inhibitor and no enzyme controls as 0 and 100% inhibition, respectively.

| EC50 [1] [nM] | logD [2] | inhibition at 10 µM [3] [%] | IC50 [5] [nM] | SMILES | phosphorylated MLC at higher doses in SCC12 cells [4] |
| --- | --- | --- | --- | --- | --- |
| 501 | 0.786 | > 75 | – | O=C(Nc1cn[nH]c1-c1ccccn1)c1nn(C2CCNCC2)cc1Cl [BDP5290, 4-chloro-1-(4-piperidyl)-N-[5-(2-pyridyl)-1H-pyrazol-4-yl]pyrazole-3-carboxamide] | – |
| – | – | – | 1450 | C[C@@H](N)[C@H]1CC[C@H](C(=O)Nc2ccncc2)CC1 [Y27632, reference compound] | residual phosphorylated MLC |
